Laboratory results taken from patent US20180194762A1 (Pharmacyclics LLC, priority 2017, published 2018).
Like-named read-outs stand apart in the source and are kept apart here.

Assays:
Format in all cases: biochemical
TEC = target: T1, TEC (Homo sapiens, UniProt P42680); experiment: Inhibition of a panel of kinases (in vitro HotSpot kinase assay, 33P-ATP, 1 μM ATP); conditions: for IC50: HotSpot kinase assay, 1 μM ATP; for TEC/Btk: ratio of TEC IC50 to Btk IC50 (selectivity)
T1 sequence (P42680 1-631): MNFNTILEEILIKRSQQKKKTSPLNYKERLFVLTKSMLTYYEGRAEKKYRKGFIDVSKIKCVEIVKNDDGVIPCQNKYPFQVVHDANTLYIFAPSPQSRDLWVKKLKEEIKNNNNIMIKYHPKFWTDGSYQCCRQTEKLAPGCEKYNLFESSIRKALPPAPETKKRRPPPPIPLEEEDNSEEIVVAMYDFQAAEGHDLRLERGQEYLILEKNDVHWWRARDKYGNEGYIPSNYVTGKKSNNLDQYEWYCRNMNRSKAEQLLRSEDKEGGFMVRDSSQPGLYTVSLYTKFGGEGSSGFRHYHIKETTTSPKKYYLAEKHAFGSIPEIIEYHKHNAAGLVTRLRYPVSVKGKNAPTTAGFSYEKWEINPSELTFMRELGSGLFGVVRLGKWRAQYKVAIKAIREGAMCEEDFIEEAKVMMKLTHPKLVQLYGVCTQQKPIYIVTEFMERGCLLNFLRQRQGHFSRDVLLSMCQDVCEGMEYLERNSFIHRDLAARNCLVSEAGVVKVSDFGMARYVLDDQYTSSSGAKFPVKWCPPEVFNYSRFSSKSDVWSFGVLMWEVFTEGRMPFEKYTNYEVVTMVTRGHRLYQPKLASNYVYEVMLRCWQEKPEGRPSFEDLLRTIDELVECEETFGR
In short: (§1)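 Radiometric read-out: 33P transfer to a suitable substrate by each purified enzyme, ATP at 1 μM. Values are degree of inhibition.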

Btk = target: T2, Btk (Homo sapiens, UniProt Q06187); experiment: Btk in vitro inhibitory activity (one of Method A TR-FRET, Method B electrophoretic mobility shift, Method C radiometric filter binding)
T2 construct: purified from insect cells as a full-length construct containing a N-terminal 6X-His tag; His6 (N); made in house; host or cells: insect cells (Method C)
In short: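 Three alternative formats were used. A radiometric filter-binding read used 8 nM full-length His-BTK with 0.2 mg/mL poly(Glu-Tyr) 4:1 (C); microfluidic separation of 1 μM FAM-peptide by 1 nM BTK gave IC50 from 12-point curves (B); TR-FRET at Km ATP, 0.5 nM Btk, gave Ki(app)-derived IC50 (A).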

panel of kinases = target: T3, panel of kinases (Homo sapiens, UniProt P51813); experiment: Inhibition of a panel of kinases (in vitro HotSpot kinase assay, 33P-ATP, 1 μM ATP), other kinases; conditions: BMX wild-type, read-out: BMX-WT IC50
T3 sequence (P51813 1-675): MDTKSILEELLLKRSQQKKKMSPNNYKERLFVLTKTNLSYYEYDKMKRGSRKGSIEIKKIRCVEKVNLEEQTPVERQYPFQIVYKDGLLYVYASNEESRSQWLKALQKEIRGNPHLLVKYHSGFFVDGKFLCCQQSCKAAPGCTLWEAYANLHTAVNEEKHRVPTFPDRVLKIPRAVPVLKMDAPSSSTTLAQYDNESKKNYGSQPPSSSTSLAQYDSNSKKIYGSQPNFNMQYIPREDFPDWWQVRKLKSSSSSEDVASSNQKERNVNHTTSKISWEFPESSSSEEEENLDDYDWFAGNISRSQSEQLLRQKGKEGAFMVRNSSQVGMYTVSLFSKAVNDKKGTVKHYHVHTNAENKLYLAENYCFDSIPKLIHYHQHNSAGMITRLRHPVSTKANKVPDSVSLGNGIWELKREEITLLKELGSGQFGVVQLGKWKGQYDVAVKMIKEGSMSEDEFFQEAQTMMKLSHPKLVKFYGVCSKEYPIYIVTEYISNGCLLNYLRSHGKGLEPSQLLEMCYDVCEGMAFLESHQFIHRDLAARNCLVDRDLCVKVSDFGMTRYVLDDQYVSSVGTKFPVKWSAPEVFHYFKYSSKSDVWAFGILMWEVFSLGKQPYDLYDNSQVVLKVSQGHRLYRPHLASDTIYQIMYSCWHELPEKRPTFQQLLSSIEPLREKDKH
In short: as §1

[1] = method is one of A, B or C, not stated which, read-out: IC50 values against Btk
[2] = wild-type Btk, read-out: Btk-WT IC50

T2 sequence (Q06187 whole entry): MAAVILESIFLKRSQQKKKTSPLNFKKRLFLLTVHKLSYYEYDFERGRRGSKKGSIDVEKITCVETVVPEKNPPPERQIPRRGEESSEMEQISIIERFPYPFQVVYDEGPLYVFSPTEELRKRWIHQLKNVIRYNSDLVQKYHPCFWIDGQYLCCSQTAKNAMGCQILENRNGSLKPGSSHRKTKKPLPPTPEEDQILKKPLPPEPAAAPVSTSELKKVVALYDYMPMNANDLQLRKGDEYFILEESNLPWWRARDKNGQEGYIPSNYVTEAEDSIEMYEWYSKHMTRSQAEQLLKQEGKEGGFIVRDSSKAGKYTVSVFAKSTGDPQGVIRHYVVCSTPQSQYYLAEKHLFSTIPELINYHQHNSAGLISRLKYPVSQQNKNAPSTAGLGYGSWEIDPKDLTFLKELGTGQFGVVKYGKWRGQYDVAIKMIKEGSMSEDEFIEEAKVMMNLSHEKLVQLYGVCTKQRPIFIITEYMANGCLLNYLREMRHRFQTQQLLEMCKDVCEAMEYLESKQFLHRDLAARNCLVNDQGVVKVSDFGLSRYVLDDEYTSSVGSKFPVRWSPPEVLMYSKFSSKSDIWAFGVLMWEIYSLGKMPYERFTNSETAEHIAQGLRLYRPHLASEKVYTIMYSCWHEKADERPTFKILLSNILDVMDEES

Row | SMILES | IC50 (TEC) [nM] | TEC/Btk (TEC) | IC50 (Btk; [1]) [nM] | IC50 (Btk; [2]) [nM] | IC50 (panel of kinases) [nM]
1 | C[C@H]1CC[C@@H](Nc2n[nH]c3nccc(-c4ccc(CNC(=O)c5noc(C(C)(C)C)n5)c(F)c4)c23)CN1S(=O)(=O)C1CC1 [Example 128, 5-tert-butyl-N-{[4-(3-{[(3R,6S)-1-(cylcopropanesulfonyl)-6-methylpiperidin-3-yl]amino}-1H-pyrazolo[3,4-b]pyridin-4-yl)-2-fluorophenyl]methyl}-1,2,4-oxadiazole-3-carboxamide] | 500 | 388 | < 10 | 1.29 | 1120
2 | C=CC(=O)N[C@@H]1CCN(c2n[nH]c3nccc(-c4ccc(CNC(=O)c5noc(C(C)C)n5)c(F)c4)c23)C1 [Example 367, N-{[2-fluoro-4-(3-{(3R)-3-[(prop-2-enoyl)amino]pyrrolidin-1-yl}-1H-pyrazolo[3,4-b]pyridin-4-yl)phenyl]methyl}-5-(propan-2-yl)-1,2,4-oxadiazole-3-carboxamide] | 47.4 | – | – | 0.058 | 26.5
3 | C=CC(=O)N1CCC[C@H](Nc2n[nH]c3nccc(-c4ccc(CNC(=O)c5nc(C(C)(C)C)no5)c(F)c4)c23)C1 [Example 169, 3-tert-butyl-N-{[2-fluoro-4-(3-{[(3S)-1-(prop-2-enoyl)piperidin-3-yl]amino}-1H-pyrazolo[3,4-b]pyridin-4-yl)phenyl]methyl}-1,2,4-oxadiazole-5-carboxamide] | 1750 | 470 | < 10 | 3.72 | 1820
4 | C[C@@H](NC(=O)c1nc(C(C)(C)C)no1)c1ccc(-c2ccnc3[nH]nc(N4CCOCC4)c23)cc1 [Example 219, 3-tert-butyl-N-[(1R)-1-{4-[3-(morpholin-4-yl)-1H-pyrazolo[3,4-b]pyridin-4-yl]phenyl}ethyl]-1,2,4-oxadiazole-5-carboxamide] | 781 | 4199 | – | 0.186 | 582
5 | CC(C)(C)c1nc(C(=O)NCc2ccc(-c3ccnc4[nH]nc(N[C@@H]5CCCN(C=O)C5)c34)cc2F)no1 [Example 90, 5-tert-butyl-N-{[2-fluoro-4-(3-{[(3R)-1-formylpiperidin-3-yl]amino}-1H-pyrazolo[3,4-b]pyridin-4-yl)phenyl]methyl}-1,2,4-oxadiazole-3-carboxamide] | 2250 | 238 | < 10 | 9.44 | 2620
6 | C=CC(=O)N1CC[C@@H](Nc2n[nH]c3nccc(-c4ccc([C@H](C)NC(=O)c5noc(C(C)(C)C)n5)cc4)c23)C1 [Example 95, 5-tert-butyl-N-[(1S)-1-[4-(3-{[(3R)-1-(prop-2-enoyl)pyrrolidin-3-yl]amino}-1H-pyrazolo[3,4-b]pyridin-4-yl)phenyl]ethyl]-1,2,4-oxadiazole-3-carboxamide] | 924 | 14 | – | 67.9 | 774
7 | CC(C)c1noc(C(=O)N[C@H](C)c2ccc(-c3ccnc4[nH]nc(N5CCOCC5)c34)cc2)n1 [Example 389, N-[(1R)-1-{4-[3-(morpholin-4-yl)-1H-pyrazolo[3,4-b]pyridin-4-yl]phenyl}ethyl]-3-(propan-2-yl)-1,2,4-oxadiazole-5-carboxamide] | 914 | – | – | 4.05 | 502
8 | C[C@@H](NC(=O)c1nc(C(C)(C)C)no1)c1ccc(-c2ccnc3[nH]nc(N[C@@H]4CC[C@H](C)N(C(=O)N(C)C)C4)c23)cc1F [Example 193, (2S,5R)-5-{[4-(4-{(1R)-1-[(3-tert-butyl-1,2,4-oxadiazole-5-carbonyl)amino]ethyl}-3-fluorophenyl)-1H-pyrazolo[3,4-b]pyridin-3-yl]amino}-N,N,2-trimethylpiperidine-1-carboxamide] | 381 | 1073 | – | 0.355 | 1040

The remaining compounds from weak to strong by IC50 (TEC), led by results:

Row | IC50 (TEC) [nM] | TEC/Btk (TEC) | IC50 (Btk; [1]) [nM] | IC50 (Btk; [2]) [nM] | IC50 (panel of kinases) [nM] | SMILES
9 | 9550 | 5859 | – | 1.63 | 5870 | C[C@@H](NC(=O)c1nc(C(C)(C)C)no1)c1ccc(-c2ccnc3[nH]nc(C4CCN(C(=O)N(C)C)CC4)c23)cc1 [Example 244, 4-[4-(4-{(1R)-1-[(3-tert-butyl-1,2,4-oxadiazole-5-carbonyl)amino]ethyl}phenyl)-1H-pyrazolo[3,4-b]pyridin-3-yl]-N,N-dimethylpiperidine-1-carboxamide]
10 | 5070 | 502 | – | 10.1 | 3960 | CC(C)(C)c1nc(C(=O)NCc2ccc(-c3ccnc4[nH]nc(NC5CCCC5)c34)cc2F)no1 [Example 257, 5-tert-butyl-N-({4-[3-(cyclopentylamino)-1H-pyrazolo[3,4-b]pyridin-4-yl]-2-fluorophenyl}methyl)-1,2,4-oxadiazole-3-carboxamide]
11 | 4430 | 115 | – | 38.4 | 5450 | C[C@@H]1[C@H](Nc2n[nH]c3nccc(-c4ccc(CNC(=O)c5noc(C(C)(C)C)n5)c(F)c4)c23)CCCN1C(=O)C1CC1 [Example 126, 5-tert-butyl-N-{[4-(3-{[(2R,3R)-1-cyclopropanecarbonyl-2-methylpiperidin-3-yl]amino}-1H-pyrazolo[3,4-b]pyridin-4-yl)-2-fluorophenyl]methyl}-1,2,4-oxadiazole-3-carboxamide]
12 | 3170 | 59 | – | 53.4 | 4370 | CC(C)(C)c1nc(C(=O)NCc2ccc(-c3ccnc4[nH]nc(N[C@H]5CC[C@H](O)CC5)c34)cc2F)no1 [Compound 21, 5-tert-butyl-N-{[2-fluoro-4-(3-{[(1r,4r)-4-hydroxycyclohexyl]amino}-1H-pyrazolo[3,4-b]pyridin-4-yl)phenyl]methyl}-1,2,4-oxadiazole-3-carboxamide]
13 | 2240 | 301 | – | 7.43 | 1560 | CC(=O)N[C@@H]1CCN(c2n[nH]c3nccc(-c4ccc(CNC(=O)c5cc(C(C)C)no5)c(F)c4)c23)C1 [Example 185, N-[(4-{3-[(3R)-3-acetamidopyrrolidin-1-yl]-1H-pyrazolo[3,4-b]pyridin-4-yl}-2-fluorophenyl)methyl]-3-(propan-2-yl)-1,2-oxazole-5-carboxamide]
14 | 472 | 1146 | – | 0.412 | 856 | C[C@H]1CC[C@@H](Nc2n[nH]c3nccc(-c4ccc(CNC(=O)c5noc(C(C)(C)C)n5)c(F)c4)c23)CN1C(=O)N1CCOCC1 [Example 230, 5-tert-butyl-N-{[2-fluoro-4-(3-{[(3R,6S)-6-methyl-1-(morpholine-4-carbonyl)piperidin-3-yl]amino}-1H-pyrazolo[3,4-b]pyridin-4-yl)phenyl]methyl}-1,2,4-oxadiazole-3-carboxamide]
15 | 205 | 448 | – | 0.458 | 704 | C[C@H]1CC[C@@H](Nc2n[nH]c3nccc(-c4ccc(CNC(=O)c5noc(C(C)(C)C)n5)c(F)c4)c23)CN1C(=O)CO [Example 227, 5-tert-butyl-N-{[2-fluoro-4-(3-{[(3R,6S)-1-(hydroxyacetyl)-6-methylpiperidin-3-yl]amino}-1H-pyrazolo[3,4-b]pyridin-4-yl)phenyl]methyl}-1,2,4-oxadiazole-3-carboxamide]
